From ChEMBL document CHEMBL1153753, “Structure-activity relationships and mechanism of action of antitumor bis 8-hydroxyquinoline substituted benzylamines” (Eur J Med Chem, 2010) come the findings set out here.

One assay in a line: Antiproliferative activity against human U87 cells expressing GFP after 3 days by flash-cytometry. It is filed as functional, U-87MG ATCC. Conditions: U-87 MG, 72 h, read-out: ED50 (the source's name).
For `Cn1cccc1CN(Cc1ccc(O)c2ncccc12)Cc1ccc(O)c2ncccc12`, the EC50 was 2000 nM.

Consider `Oc1ccc(CN(Cc2ccc(O)c3ncccc23)Cc2ccc(O)c3ncccc23)c2cccnc12`, for which the EC50 is above 10000 nM.

In the case of `Oc1ccc(CN(Cc2ccc(O)c3ncccc23)CC2CCCO2)c2cccnc12` (centres undefined), the EC50 was found to be 5000 nM.

On to `Oc1ccc(CN(Cc2ccccc2)Cc2ccccc2)c2cccnc12`, for which the EC50 came to 5000 nM.

Consider `CC(C)(C)OC(=O)N(Cc1cccc(C(F)(F)F)c1)Cc1ccc(O)c2ncccc12`, for which the EC50 was above 10000 nM.

Consider `Cc1ccc(C(=O)NCc2ccc(O)c3ncccc23)cc1`, for which the EC50 was 10000 nM.

With `Cc1ccc(CNCc2ccc(O)c3ncccc23)cc1`, the EC50 is above 10000 nM.

In the case of `Oc1ccc(CN(CCN2CCCC2)Cc2ccc(O)c3ncccc23)c2cccnc12`, the EC50 amounted to 200 nM.

Another assay in a line: Cytotoxicity against human KB3 cells after 72 hrs by MTS assay. The class given is functional. The conditions noted are these: KB3, 72 h. A general note: Tetrazolium assays rely on reduction of a dye to a coloured formazan, in cell work by metabolically active cells.
`Oc1ccc(CNCc2ccccc2)c2cccnc12` returned a 50% cytotoxic concentration (CC50) above 1000 nM.

Regarding `Oc1ccc(CN(Cc2ccc(OC(F)(F)F)cc2)Cc2ccc(O)c3ncccc23)c2cccnc12`, the half-maximal cytotoxic concentration (CC50) was determined as 100 nM.

For the compound `Oc1ccc(CN(Cc2ccc(O)c3ncccc23)Cc2ccc(O)c3ncccc23)c2cccnc12`, the CC50 is above 10000 nM.

On to `CC(C)(C)OC(=O)N(Cc1cc(C(F)(F)F)cc(C(F)(F)F)c1)Cc1ccc(O)c2ncccc12`, for which half-maximal cytotoxicity (CC50) was put at 1000 nM.

`Oc1ccc(CN(Cc2ccc(O)c3ncccc23)CC2CCCO2)c2cccnc12` (centres undefined): half-maximal cytotoxicity (CC50) was put at 10000 nM.

In turn, `Oc1ccc(CN(Cc2ccccc2)Cc2ccccc2)c2cccnc12` showed a CC50 of 1000 nM.

As to `CC(C)(C)OC(=O)N(Cc1cccc(C(F)(F)F)c1)Cc1ccc(O)c2ncccc12`, half-maximal cytotoxicity (CC50) was put at 1000 nM.

As for `Oc1ccc(CN(CCc2ccccn2)Cc2ccc(O)c3ncccc23)c2cccnc12`, the cytotoxic concentration (CC50) was above 10000 nM.

`Cc1ccc(C(=O)NCc2ccc(O)c3ncccc23)cc1` yielded a CC50 of 1000 nM.

Regarding `COc1ccc(CN(Cc2ccc(C(F)(F)F)cc2)Cc2ccc(O)c3ncccc23)c2cccnc12`, the cytotoxic concentration (CC50) is above 10000 nM.

In the case of `Oc1ccc(CN(CCN2CCCC2)Cc2ccc(O)c3ncccc23)c2cccnc12`, half-maximal cytotoxicity (CC50) was put at 1000 nM. In other words, the single-digit micromolar range.

In general, CC50 refers to the concentration that lowers cell viability or growth by half.
